Patent US9113629B2, “4-amino-6-(4-substituted-phenyl)-picolinates and 6-amino-2-(4-substituted-phenyl)-pyrimidine-4-carboxylates and their use as herbicides” (DOW AGROSCIENCES LLC, priority 2013, dated 2015)

Test system: Key Grass and Sedge Weeds as well as Grass Crops
Assay: Post-emergent Test II herbicidal activity (Table 6)
Format: in vivo
Details: post-emergence, 336 h, CYPES: yellow nutsedge (Cyperus esculentus), 70 g ai/ha, read-out: Visual Growth Reduction (%) 14 Days After Application, CYPES
Method in brief: (§1)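 Plants grown in Metro-Mix 360 (pH 6.0–6.8) in a greenhouse (~15 h photoperiod, 23–29 °C day) to first or second true leaf stage, then sprayed with compound in acetone/DMSO/aqueous crop-oil-surfactant carrier at 187 L/ha by track sprayer. Injury visually scored 0–100% versus untreated plants after 14 d.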

Compound	pest or weed control at 70 g/ha
COC(=O)c1nc(-c2ccc(C(F)(F)F)c(F)c2F)nc(N)c1OC [Compound 64]	45 to 59%

Same assay, conditions: post-emergence, 336 h, CYPES: yellow nutsedge (Cyperus esculentus), 140 g ai/ha, read-out: Visual Growth Reduction (%) 14 Days After Application, CYPES

Compound	pest or weed control at 140 g/ha
COC(=O)c1nc(-c2ccc(C(F)(F)F)c(F)c2F)nc(N)c1OC [Compound 64]	60 to 74%

Same assay, conditions: post-emergence, 336 h, DIGSA: crabgrass (Digitaria sanguinalis), 70 g ai/ha, read-out: Visual Growth Reduction (%) 14 Days After Application, DIGSA

Compound	pest or weed control at 70 g/ha
COC(=O)c1nc(-c2ccc(C(F)(F)F)c(F)c2F)nc(N)c1OC [Compound 64]	60 to 74%

Same assay, conditions: post-emergence, 336 h, DIGSA: crabgrass (Digitaria sanguinalis), 140 g ai/ha, read-out: Visual Growth Reduction (%) 14 Days After Application, DIGSA

Compound	pest or weed control at 140 g/ha
COC(=O)c1nc(-c2ccc(C(F)(F)F)c(F)c2F)nc(N)c1OC [Compound 64]	85 to 94%

Same assay, conditions: post-emergence, 336 h, ECHCG: barnyardgrass (Echinochloa crus-galli), 70 g ai/ha, read-out: Visual Growth Reduction (%) 14 Days After Application, ECHCG

Compound	pest or weed control at 70 g/ha
COC(=O)c1nc(-c2ccc(C(F)(F)F)c(F)c2F)nc(N)c1OC [Compound 64]	45 to 59%

Same assay, conditions: post-emergence, 336 h, ECHCG: barnyardgrass (Echinochloa crus-galli), 140 g ai/ha, read-out: Visual Growth Reduction (%) 14 Days After Application, ECHCG

Compound	pest or weed control at 140 g/ha
COC(=O)c1nc(-c2ccc(C(F)(F)F)c(F)c2F)nc(N)c1OC [Compound 64]	85 to 94%

Same assay, conditions: post-emergence, 336 h, ORYSA: rice (Oryza sativa), crop, 70 g ai/ha, read-out: Visual Growth Reduction (%) 14 Days After Application, ORYSA

Compound	pest or weed control at 70 g/ha
COC(=O)c1nc(-c2ccc(C(F)(F)F)c(F)c2F)nc(N)c1OC [Compound 64]	0 to 29%

Same assay, conditions: post-emergence, 336 h, ORYSA: rice (Oryza sativa), crop, 140 g ai/ha, read-out: Visual Growth Reduction (%) 14 Days After Application, ORYSA

Compound	pest or weed control at 140 g/ha
COC(=O)c1nc(-c2ccc(C(F)(F)F)c(F)c2F)nc(N)c1OC [Compound 64]	0 to 29%

Same assay, conditions: post-emergence, 336 h, SETFA: giant foxtail (Setaria faberi), 70 g ai/ha, read-out: Visual Growth Reduction (%) 14 Days After Application, SETFA

Compound	pest or weed control at 70 g/ha
COC(=O)c1nc(-c2ccc(C(F)(F)F)c(F)c2F)nc(N)c1OC [Compound 64]	30 to 44%

Same assay, conditions: post-emergence, 336 h, SETFA: giant foxtail (Setaria faberi), 140 g ai/ha, read-out: Visual Growth Reduction (%) 14 Days After Application, SETFA

Compound	pest or weed control at 140 g/ha
COC(=O)c1nc(-c2ccc(C(F)(F)F)c(F)c2F)nc(N)c1OC [Compound 64]	60 to 74%

Same assay, conditions: post-emergence, 336 h, SORVU: grain sorghum (Sorghum vulgare), 70 g ai/ha, read-out: Visual Growth Reduction (%) 14 Days After Application, SORVU

Compound	pest or weed control at 70 g/ha
COC(=O)c1nc(-c2ccc(C(F)(F)F)c(F)c2F)nc(N)c1OC [Compound 64]	30 to 44%

Same assay, conditions: post-emergence, 336 h, SORVU: grain sorghum (Sorghum vulgare), 140 g ai/ha, read-out: Visual Growth Reduction (%) 14 Days After Application, SORVU

Compound	pest or weed control at 140 g/ha
COC(=O)c1nc(-c2ccc(C(F)(F)F)c(F)c2F)nc(N)c1OC [Compound 64]	45 to 59%

Same assay, conditions: post-emergence, 336 h, TRZSS (wheat, Triticum aestivum), crop, 70 g ai/ha, read-out: Visual Growth Reduction (%) 14 Days After Application, TRZSS

Compound	pest or weed control at 70 g/ha
COC(=O)c1nc(-c2ccc(C(F)(F)F)c(F)c2F)nc(N)c1OC [Compound 64]	30 to 44%

Same assay, conditions: post-emergence, 336 h, TRZSS (wheat, Triticum aestivum), crop, 140 g ai/ha, read-out: Visual Growth Reduction (%) 14 Days After Application, TRZSS

Compound	pest or weed control at 140 g/ha
COC(=O)c1nc(-c2ccc(C(F)(F)F)c(F)c2F)nc(N)c1OC [Compound 64]	45 to 59%

Same assay, conditions: post-emergence, 336 h, ZEAMX: maize, corn (Zea mays), crop, 70 g ai/ha, read-out: Visual Growth Reduction (%) 14 Days After Application, ZEAMX

Compound	pest or weed control at 70 g/ha
COC(=O)c1nc(-c2ccc(C(F)(F)F)c(F)c2F)nc(N)c1OC [Compound 64]	95 to 100%

Same assay, conditions: post-emergence, 336 h, ZEAMX: maize, corn (Zea mays), crop, 140 g ai/ha, read-out: Visual Growth Reduction (%) 14 Days After Application, ZEAMX

Compound	pest or weed control at 140 g/ha
COC(=O)c1nc(-c2ccc(C(F)(F)F)c(F)c2F)nc(N)c1OC [Compound 64]	95 to 100%

Test system: not given
Assay: not given
Details: not given

melting point	Compound
140 to 141 °C	COC(=O)c1nc(-c2ccc(C(F)(F)F)c(F)c2F)nc(N)c1OC [Compound 64]

Test system: Key Broadleaf Weed and Crop Species
Assay: Post-emergent Test II herbicidal activity (Table 5)
Format: in vivo
Details: post-emergence, 336 h; ABUTH: velvetleaf (Abutilon theophrasti); application rate 70 g ai/ha; 14 days after application; read-out: Visual Growth Reduction (%) 14 Days After Application, ABUTH
Method in brief: as §1

Compound	pest or weed control at 70 g/ha
COC(=O)c1nc(-c2ccc(C(F)(F)F)c(F)c2F)nc(N)c1OC [Compound 64]	95 to 100%

Same assay, conditions: post-emergence, 336 h; ABUTH: velvetleaf (Abutilon theophrasti); application rate 140 g ai/ha; 14 days after application; read-out: Visual Growth Reduction (%) 14 Days After Application, ABUTH

Compound	pest or weed control at 140 g/ha
COC(=O)c1nc(-c2ccc(C(F)(F)F)c(F)c2F)nc(N)c1OC [Compound 64]	95 to 100%

Same assay, conditions: post-emergence, 336 h; AMARE: redroot pigweed (Amaranthus retroflexus); application rate 70 g ai/ha; 14 days after application; read-out: Visual Growth Reduction (%) 14 Days After Application, AMARE

Compound	pest or weed control at 70 g/ha
COC(=O)c1nc(-c2ccc(C(F)(F)F)c(F)c2F)nc(N)c1OC [Compound 64]	45 to 59%

Same assay, conditions: post-emergence, 336 h; AMARE: redroot pigweed (Amaranthus retroflexus); application rate 140 g ai/ha; 14 days after application; read-out: Visual Growth Reduction (%) 14 Days After Application, AMARE

Compound	pest or weed control at 140 g/ha
COC(=O)c1nc(-c2ccc(C(F)(F)F)c(F)c2F)nc(N)c1OC [Compound 64]	75 to 84%

Same assay, conditions: post-emergence, 336 h; BRSNN: oilseed-rape, canola (Brassica napus); application rate 70 g ai/ha; 14 days after application; read-out: Visual Growth Reduction (%) 14 Days After Application, BRSNN

Compound	pest or weed control at 70 g/ha
COC(=O)c1nc(-c2ccc(C(F)(F)F)c(F)c2F)nc(N)c1OC [Compound 64]	75 to 84%

Same assay, conditions: post-emergence, 336 h; BRSNN: oilseed-rape, canola (Brassica napus); application rate 140 g ai/ha; 14 days after application; read-out: Visual Growth Reduction (%) 14 Days After Application, BRSNN

Compound	pest or weed control at 140 g/ha
COC(=O)c1nc(-c2ccc(C(F)(F)F)c(F)c2F)nc(N)c1OC [Compound 64]	85 to 94%

Same assay, conditions: post-emergence, 336 h; CHEAL: lambsquarters (Chenopodium album); application rate 70 g ai/ha; 14 days after application; read-out: Visual Growth Reduction (%) 14 Days After Application, CHEAL

Compound	pest or weed control at 70 g/ha
COC(=O)c1nc(-c2ccc(C(F)(F)F)c(F)c2F)nc(N)c1OC [Compound 64]	95 to 100%

Same assay, conditions: post-emergence, 336 h; CHEAL: lambsquarters (Chenopodium album); application rate 140 g ai/ha; 14 days after application; read-out: Visual Growth Reduction (%) 14 Days After Application, CHEAL

Compound	pest or weed control at 140 g/ha
COC(=O)c1nc(-c2ccc(C(F)(F)F)c(F)c2F)nc(N)c1OC [Compound 64]	95 to 100%

Same assay, conditions: post-emergence, 336 h; EPHHL: wild poinsettia (Euphorbia heterophylla); application rate 70 g ai/ha; 14 days after application; read-out: Visual Growth Reduction (%) 14 Days After Application, EPHHL

Compound	pest or weed control at 70 g/ha
COC(=O)c1nc(-c2ccc(C(F)(F)F)c(F)c2F)nc(N)c1OC [Compound 64]	95 to 100%

Same assay, conditions: post-emergence, 336 h; EPHHL: wild poinsettia (Euphorbia heterophylla); application rate 140 g ai/ha; 14 days after application; read-out: Visual Growth Reduction (%) 14 Days After Application, EPHHL

Compound	pest or weed control at 140 g/ha
COC(=O)c1nc(-c2ccc(C(F)(F)F)c(F)c2F)nc(N)c1OC [Compound 64]	95 to 100%

Same assay, conditions: post-emergence, 336 h; HELAN: sunflower (Helianthus annuus); application rate 70 g ai/ha; 14 days after application; read-out: Visual Growth Reduction (%) 14 Days After Application, HELAN

Compound	pest or weed control at 70 g/ha
COC(=O)c1nc(-c2ccc(C(F)(F)F)c(F)c2F)nc(N)c1OC [Compound 64]	95 to 100%

Same assay, conditions: post-emergence, 336 h; HELAN: sunflower (Helianthus annuus); application rate 140 g ai/ha; 14 days after application; read-out: Visual Growth Reduction (%) 14 Days After Application, HELAN

Compound	pest or weed control at 140 g/ha
COC(=O)c1nc(-c2ccc(C(F)(F)F)c(F)c2F)nc(N)c1OC [Compound 64]	95 to 100%

Same assay, conditions: post-emergence, 336 h; VIOTR: wild pansy (Viola tricolor); application rate 70 g ai/ha; 14 days after application; read-out: Visual Growth Reduction (%) 14 Days After Application, VIOTR

Compound	pest or weed control at 70 g/ha
COC(=O)c1nc(-c2ccc(C(F)(F)F)c(F)c2F)nc(N)c1OC [Compound 64]	60 to 74%

Same assay, conditions: post-emergence, 336 h; VIOTR: wild pansy (Viola tricolor); application rate 140 g ai/ha; 14 days after application; read-out: Visual Growth Reduction (%) 14 Days After Application, VIOTR

Compound	pest or weed control at 140 g/ha
COC(=O)c1nc(-c2ccc(C(F)(F)F)c(F)c2F)nc(N)c1OC [Compound 64]	60 to 74%
